# Experimental data published in patent publication US8168391B2, “Method for modulating insulin production” (Burnham Institute for Medical Research, priority 2007, dated 2012).
# Where a name gives a salt, the structure may show the parent alone.
# Tested on: insulin promoter
# Assay: Insulin promoter/reporter screen in the presence of a fatty acid (reversal of palmitate-induced lipotoxicity)
# Format: cell-based, human
# Details: screen in presence of fatty acid (FIG. 20) vs not in presence (FIG. 19)
# Source text: The assays employ a cell line derived from human fetal islet cells (T6PNE) in which the cells are infected with a promoter/reporter construct. The construct is shown in FIG. 7 and incorporates an insulin promoter operably linked to an eGFP. Cells were infected and plated, and candidate libraries screened and “hit” detected as discussed in Example 1.
# To differentiate between agents that specifically act to reverse lipotoxicity as compared to generally increasing transcription of insulin a two layer screening approach was utilized. In the first layer, islet cells infected with an insulin promoter/reporter construct are screened in the absence of a fatty acid. A “hit” indicates an agent that is capable of increasing insulin transcription. In the second layer, islet cells infected with an insulin promoter/reporter construct are screened in the presence of a fatty acid. A “hit” indicates a drug that reverses the effects of the fatty acid addition, for example reduction of insulin transcription. This drugs screened in both layers may be used to identify whether the drug is specific to lipotoxicity reversal. For example, drugs that are “hits” in the second layer screen but not in the first layer screen are specific to lipotoxicity reversal.
row,SMILES,reversal of palmitate-induced lipotoxicity
1,CC(=O)Oc1c(C)c(C)c2c(c1C)CCC(C)(CCC[C@H](C)CCC[C@H](C)CCCC(C)C)O2 (stereo partly drawn) [alpha-tocopheryl acetate],expected to reverse lipotoxicity
2,CC(Cc1cccc(C(F)(F)F)c1)NCCOC(=O)c1ccccc1 (stereo not drawn) [benfluorex hydrochloride],expected to reverse lipotoxicity
3,CC1=C(/C=C/C(C)=C/C=C/C(C)=C/C=C/C=C(C)/C=C/C=C(C)/C=C/C2=C(C)CCCC2(C)C)C(C)(C)CCC1 [beta-carotene],expected to reverse lipotoxicity
4,Clc1ccc(C(OCCN2CCCCC2)c2ccccc2)cc1 (stereo not drawn) [cloperastine hydrochloride],expected to reverse lipotoxicity
5,CC[C@H](C)C(=O)O[C@H]1C[C@@H](C)C=C2C=C[C@H](C)[C@H](CC[C@@H]3C[C@@H](O)CC(=O)O3)[C@H]21 [lovastatin],expected to reverse lipotoxicity
6,Cc1cccc(Nc2ccccc2C(=O)O)c1C [mefenamic acid],expected to reverse lipotoxicity

# Tested on: insulin promoter
# Assay: HTS insulin promoter/eGFP reporter screen in T6PNE cells (absence of fatty acid)
# Format: cell-based, human
# Details: ChemBridge DiverSet library screen as in Example 2
# Protocol: A library of 1000 candidate drug compounds was initially screened using NEPCs cultured in a 384-well HTS format using the following method. NEPCs were infected with promoter/reporter constructs in suspension for 6 hours. The cells were then directly plated on Collagen I coated 384-well microtiter plates in media containing 10% plasma. Monolayer formation was allowed to progress by culture for 4 days with regular media changes. Library compounds were then contacted with the cells and added at a final concentration of 5 μM and incubated for 48 hours. Image analysis was then performed using fluorescent microscopy using DAPI […] and imaging of GFP to determine promoter activation activity of individual compounds. Image analysis algorithms are further refined to eliminate auto-fluorescent debris to accurately quantify green fluorescence. The assays employ a cell line derived from human fetal islet cells ([…]) in which the cells are infected with a promoter/reporter construct. The construct is shown in FIG. 7 and incorporates an insulin promoter operably linked to an eGFP. Cells were infected and plated, and candidate libraries screened and “hit” detected as discussed in Example 1. To differentiate between agents that specifically act to reverse lipotoxicity as compared to generally increasing transcription of insulin a two layer screening approach was utilized. In the first layer, islet cells infected with an insulin promoter/reporter construct are screened in the absence of a fatty acid. A “hit” indicates an agent that is capable of increasing insulin transcription. In the second layer, islet cells infected with an insulin promoter/reporter construct are screened in the presence of a fatty acid. A “hit” indicates a drug that reverses the effects of the fatty acid addition, for example reduction of insulin transcription. This drugs screened in both layers may be used to identify whether the drug is specific to lipotoxicity reversal. For example, drugs that are “hits” in the second layer screen but not in the first layer screen are specific to lipotoxicity reversal. […]
row,SMILES,upregulation of the insulin promoter
1,NCCc1ccc(O)c(O)c1 [dopamine],upregulated the insulin promoter

# Same assay, conditions: repeat of initial screen with dose response; T6PNE cells, insulin promoter-eGFP
row,SMILES,activator of insulin promoter confirmed in confirmatory screen
1,CN(C)CCCN1c2ccccc2Sc2ccc(Cl)cc21 [chlorpromazine],confirmed
2,CCN(CC)C(C)CN1c2ccccc2Sc2ccccc21 (stereo not drawn) [ethopropazine],confirmed
